Assay results published in US11976116B2, “Salvage chimeric antigen receptor systems” (2seventy bio, Inc., priority 2016, dated 2024).

What was measured:
[1] = system: K562-BCMA positive cells; experiment: Cytotoxicity assay, CAR T cells co-cultured with K562-BCMA positive and negative cells; type: cell-based; settings: 20 nM AP21967, 24 hours, E:T 5:1
Description: (§1) Human PBMCs (1×10^6 cells/mL) were activated with soluble anti-CD3 and anti-CD28 antibodies (50 ng/ml) on day 0. After 24 hr incubation, 1×10^6 cells were transduced with lentivirus encoding either an anti-BCMA CAR or an anti-BCMA salvage CAR. The transduced cells were washed and resuspended at 0.3×10^6 cells/mL growth medium on day 3. The CAR T cells were cultured for 7 days with IL-2 (250 IU/mL) containing medium changed every other day.
The cytotoxic potential of anti-BCMA CAR T cells and anti-BCMA salvage CAR T cells was analyzed by co-culturing day 10 CAR T cells (E, effector cells) with a 50:50 mixture of K562-BCMA positive cells (GFP positive) (T, target cells) and K562-BCMA negative cells (BFP positive) for 24 hours at an E:T ratio of 5:1. Cells were co-cultured with or without 20 nM AP21967 (a non-immunosuppressive rapamycin analog). The ratio of K562-BCMA positive cells to K562-BCMA negative cells is a direct readout of CAR T cell cytotoxicity.

[2] = system: K562-BCMA positive cells; experiment: IFNγ release assay (ELISA), CAR T cells co-cultured with K562-BCMA positive cells; type: cell-based; settings: 24 hours, E:T 1:1
Description: as §1
Antigen dependent cytokine secretion was analyzed by co-culturing day 10 CAR T cells with K562-BCMA positive cells for 24 hours at an E:T ratio of 1:1 (with or without AP21967). Culture supernatants were collected and IFNγ production was analyzed using the IFNγ ELISA kit (eBiosciences).

[3] = system: BCMA negative, CD19 positive Nalm-6 cells; experiment: Cytotoxicity assay, anti-BCMA salvage CAR T cells co-cultured with Nalm-6-CD19 positive and K562-CD19 negative cells; type: cell-based; settings: 250 ng pre-loaded receptor, with or without 100 nM AP21967, 24 hr, E:T 2:1
From the text: 293 T cells were transduced with lentivirus encoding the dimerizable anti-CD19 salvage receptor to generate a stable source of secreted anti-CD19-scFv-FKBP12 proteins (FIG. 1, right panel). Supernatant containing soluble anti-CD19 salvage receptor polypeptides (anti-CD19 scFV FKBP12) was collected from stable 293T-710 cells and filtered.
The anti-CD19 salvage receptor forms a heterodimer with the anti-BCMA salvage CAR in the presence of AP21967 (FIG. 3A). The cytotoxic potential of anti-BCMA salvage CAR T cells (E) against BCMA negative, CD19 positive Nalm-6 cells (T) was analyzed by co-culturing CAR T cells with a 50:50 mixture of Nalm-6-CD19 positive cells (GFP positive) and K562-CD19 negative cells (BFP positive) for 24 hours at an E:T ratio of 2:1. The co-cultures were treated with vehicle or 100 nM AP21967 and with different volumes of 293T-710 cell supernatant (0 μl, 10 μl, or 30 μl). […] FIG. 3B.
T cells were transduced with lentiviral vectors encoding an anti-BCMA CAR or anti-BCMA salvage CAR. The CART cells were co-cultured with a 50:50 mixture of CD19 positive Nalm-6 cells expressing GFP and CD19 negative K562 cells expressing BFP, in the presence or absence of 250 ng pre-loaded dimerizable anti-CD19 salvage receptor, with or without 100 nM AP21967, for 24 hr, at a 2:1 E:T ratio. […] FIG. 5. AP21967 was not required to trigger the CD19 specific cytotoxicity. […]

[4] = target and assay not given; cited from earlier work

## CO[C@H]1[C@@H](O)[C@H](C)C[C@H](C)/C=C/C=C/C=C(\C)[C@@H](c2c[nH]c3c(C)cccc23)C[C@@H]2CC[C@@H](C)[C@@](O)(O2)C(=O)C(=O)N2CCCC[C@H]2C(=O)O[C@H]([C@H](C)C[C@@H]2CC[C@@H](O)[C@H](OC)C2)C[C@H](O)[C@H](C)/C=C(\C)[C@H]1O [AP21967, C-16-(S)-7-methylindolerapamycin]
[1]
  effect of AP21967 on cytotoxicity: no effect on cytotoxicity
[2]
  effect of AP21967 in the IFNγ release co-culture: did not substantially affect cytotoxicity
[3]
  requirement of AP21967 for CD19 specific cytotoxicity: not required
[4]
  IC50: 10 nM
